Test results from patent publication US8133903B2, “Methods of use of inhibitors of phosphodiesterases and modulators of nitric oxide, reactive oxygen species, and metalloproteinases in the treatment of peyronie's disease, arteriosclerosis and other fibrotic diseases” (Los Angeles Biomedical Research Institute at Harbor—UCLA …, priority 2003, dated 2012).

Key:
[1] = test system: fibroblast cultures from human PD plaque; experiment: cGMP and cAMP enzyme immunoassays in fibroblast cultures from human PD plaque; type: cell-based; conditions: for cGMP levels as % of control levels: 3-day incubation
Text: (§1) Primary human cell cultures: Human fibroblast primary cultures were obtained from fragments of PD plaque or TA essentially according to Smith and Liu (2002), and their purity was established by immunohistochemistry, as detailed below. New primary cultures were obtained from fragments of PD plaque or TA that were washed in Hanks solution, minced in a fibroblast growth medium (FGM) (BioWhittaker Inc., Walkersville, Md.) and 20% fetal bovine serum (FBS), and plated onto a 25 cm^2 culture flask per specimen (Vernet et al., 2002). Fragments were left undisturbed until attachment for about 1 week. Once the monolayer started to develop, the fragment was removed. Medium with 10% FBS was changed once a week and when cells achieved approximately 80% confluence (3-4 weeks) they were trypsinized and split onto 10 cm plates. Cells were allowed to grow again to 80% confluence, with medium changed twice a week. The cells collected from this passage were considered as passage 1. Successive passages were performed at 1/3 split ratio, and studies were carried out on cells from passages 3 onwards. Studies were performed with PD cells from the 4th to the 10th passages. Cells were incubated on: a) 75 cm^2 flasks for RNA isolation; b) 6-well plates for protein isolation; and c) 8-well removable chambers for cytochemistry and immunocytochemistry. Treatments with different additions were initiated 24 hours after plating and continued for different periods.
The presence of PDEs in the PD fibroblasts in culture was confirmed by the ability of increasing concentrations of sildenafil and pentoxifylline to raise the basal cGMP and cAMP levels in triplicate wells, either in the absence or the presence of the NO donor, SNAP (S-nitroso-N-acetyl penicillamine) (Alexis Biochemicals, San Diego, Calif.) added daily at 100 μM, as measured by cGMP and cAMP EIA (enzyme immuno absorption) kits (Cayman Chemical, Ann Arbor, Mich.). Experiments were performed in duplicate. Values were expressed as pmoles cGMP or cAMP/mg protein. To normalize for differences between experiments, the changes in cGMP and cAMP levels exerted by sildenafil and pentoxifylline were expressed as % of their respective control values in the absence of the PDE inhibitors.

[2] = test system: fibroblast cultures from human PD plaque; experiment: TUNEL apoptosis in fibroblast cultures from human PD plaque
Method: Cells incubated in 8-well chamber slides were allowed to grow to 50-60% confluence. At this point, cells received in duplicate sildenafil, pentoxifylline, or 8-Br cGMP at the concentrations indicated, and were allowed to propagate for 3 days without changing medium. In certain cases SNAP was added and replaced daily after changing the medium (Vernet et al., 2002). All studies were done in duplicate or triplicate.
For cell cultures, the cells were fixed in 4% formaldehyde for 30 min on ice, and post-fixed with ethanol-acetic acid 2/1 for 5 min at −20 C. Then the above procedure was applied, except that the proteinase K was omitted.
The number of positive cells was counted in a computerized grid against the total number of cells determined by counterstaining, and results were expressed as a percentage of positive cells over total cells. […] The apoptotic index (rate of programmed cell death) was calculated as the percentage of apoptotic cells within the total number of cells in a given area (non-apoptotic nuclei plus apoptotic cells). In all cases, five non-overlapping fields were screened per tissue section or per well. Three sections per tissue specimen from groups of five animals, or two wells per experimental point in cell incubations, were then used to calculate the means+/−SEM.

[3] = test system: fibroblast cultures from human PD plaque; experiment: Collagen I/III and ASMA immunocytochemistry with QIA in fibroblast cultures from human PD plaque; type: cell-based; conditions: for number of ASMA positive cells (myofibroblasts): control 37%; for synthesis of collagen III: PDE inhibitors
Text: as §1
In the case of cell cultures, at completion of incubations, slides were removed from the chambers and cells were fixed for immunodetection for 20 min in 4% buffered formalin at room temperature for α-smooth muscle actin (ASMA) (as a myofibroblast marker), vimentin (as a general fibroblast marker), and in certain cases for PDE5 and PDE4, or in ethanol at −20 C for collagen I and III (Vernet et al., 2002). The cells were quenched, blocked with normal goat serum and incubated with monoclonal primary antibodies for ASMA and vimentin (Sigma Immunohistology Kits, Sigma Chemical Co, St. Louis, Mo.), collagen I, and collagen III (1:40) (Chemicon International, Temecula, Calif.), overnight at 4° C. (Vernet et al., 2002; Ferrini et al., 2002). Processing was according with the manufacturer's instructions for ASMA, vimentin and collagen, consisting in the respective monoclonal antibodies and an anti-mouse biotinylated secondary antibody, followed by avidin-biotinylated HRP and the 3-amino-9-ethylcarbazol (AEC) chromogen. For PDE5A, the antibodies were as described above. Negative controls omitted the first antibodies or were replaced by IgG isotype at the same concentration of the first antibodies. Counterstaining was done with Mayer's hematoxylin. All the slides were mounted with Aqua Mount (Lerner, Pittsburgh, Pa.). For PDE4, the anti PDE4A and PDE4B affinity purified IgGs used for western blot was employed, and in addition the anti-PDE4A4 and anti-PDE4D (detecting variants 1-5) from the same source (FabGennix Inc.) were used.
(§2) The quantitation of the staining obtained by either histochemical or immunohisto/cytochemical techniques was performed by computerized densitometry using the ImagePro 4.01 program (Media Cybernetics, Silver Spring, Md.), coupled to an Olympus BHS microscope equipped with a Spot RT digital camera or VCC video camera (Wang et al., 2001; Ferrini et al., 2001a, 2001b; Davila et al., 2003b).

[4] = test system: TGF-β1-induced fibrotic plaque in the rat tunica albuginea; experiment: TGF-β1 rat model of Peyronie's disease, plaque and collagen deposition by Masson staining with QIA; type: in vivo; conditions: for plaque size (Masson staining, collagen fiber/cell-lacunae area ratio, width of the tunica): oral in drinking water, 100 mg/l, 45 days following TGF-β1 injection
Method: (§3) TGF-β1 rat model. Male Fisher 344 rats, 9-11 month old purchased from the NIH/NIA colony (Harlan Sprague-Dawley, Inc., San Diego, Calif.) and maintained under controlled temperature and lighting, were anesthetized and injected in the penile TA at the middle of the penis with either vehicle only (saline, group 1) or 0.5 μg recombinant human TGF-β1 (Biotech Diagnostic, Laguna Niguel, Calif., groups 2-5) as disclosed (Ferrini et al., 2002; Vernet et al., 2002). After the injection, groups 1 and 2 were given drinking water while the other groups received water with L-arginine (2.25 g/kg/day, group 3) (Moody et al., 1997), or sildenafil (10 mg/kg/day, group 4) or pentoxifylline (10 mg/kg/day, group 5). Forty-five days later, or as indicated, animals were sacrificed and perfused through the left ventricle with saline followed by 4% formalin ((Ferrini et al., 2002; Vernet et al., 2002). After the penises were excised, the penile skin was denuded by removing the glans and adhering non-crural tissue. The penile shaft was separated from the crura and 2-3 mm transverse slices were cut around the site of the saline or TGF-β1 injection. All tissues were post-fixed overnight in 4% formalin, washed in PBS and stored at 4° C.
In the case of tissue sections, the determinations of the collagen/smooth muscle ratio were carried out with Masson trichrome (Ferrini et al., 2002; Davila et al., 2003b) on adjacent 5 μm paraffin-embedded cross-sections from the human normal tunical or plaque tissues, or from a 2 mm area around the site of injection in the rat saline- and TGF-β1-injected shaft tissues. Other distal sections were obtained along the rat penile shaft.
as §2

[5] = test system: TGF-β1-induced fibrotic plaque in the rat tunica albuginea; experiment: TUNEL apoptosis in the TGF-β1-induced plaque of the rat tunica albuginea; type: in vivo; conditions: for apoptotic index in the plaque: oral in drinking water, 100 mg/l, 45 days following TGF-β1 injection
Method: as §3

[6] = test system: normal human TA and PD fibroblast cultures; experiment: Fibroblast numbers in normal human TA and PD cultures; type: cell-based; conditions: both normal human TA and PD cultures
Text: as §1, with “Treatments with different additions were initiated 24 hours after plating and continued for different periods.” left out

[7] = cited from earlier work
PDE5A3 = PDE5A3 (Homo sapiens, UniProt O76074); conditions: cited from earlier work
[8] = in the presence of SNAP (100 uM), increasing concentrations

With `Nc1nc2c(nc(Br)n2[C@@H]2O[C@@H]3COP(=O)(O)O[C@H]3[C@H]2O)c(=O)[nH]1` [8 Br-cGMP] the “intracellular cGMP levels” value ([1]; 100 uM, control 0.02) was 1.83 nmoles/10^6 cells, the “increase of cGMP levels in cell extracts” value ([1]; 8 Br-cGMP at 10 uM) was 6.4 fold and the “increase of cGMP levels in cell extracts” value ([1]; 8 Br-cGMP at 100 μM) was 38.7 fold. The “apoptosis by TUNEL” value ([2]; 100 uM, control 7.5+/−0.4) was 20.5+/−1.1 cells per field, the “increase of apoptosis (apoptotic index, TUNEL, image analysis)” value ([2]; 3 days, did not achieve statistical significance) was 2.3 fold and the “reduction in the number of cells expressing collagen I” value ([3]; 10 μM, 3 days) was 30%. For the same compound, the “ASMA expression per cell (myofibroblast differentiation)” value ([3]; 400 μM, 3 days) was “decreased significantly”, the “number of cells expressing collagen I” value ([3]; 400 μM, 3 days, compared with 10 μM) was “did not induce further decrease” and the “collagen I expression per cell” value ([3]; 3 days) was “reduced only moderately and non-significantly”. The “relative number of ASMA positive cells” value ([3]; 3 days) was “no effect” and the “collagen I production by the cells” value ([3]; levels as low as 10 uM) was “inhibited collagen I production”.

With `N=C(N)NCCC[C@H](N)C(=O)O` [L-arginine] the “size of the TGF-β1-induced plaque (Masson staining, collagen fiber/cell-lacunar area ratio)” value ([4]; oral L-arginine in drinking water (2.25%), 45 days after TGF-β1 injection) was “considerable decrease in the size”, the “apoptotic index (apoptotic cells/total number of cells) in the plaque” value ([5]; oral L-arginine (2.25%)) was “no significant difference” and the “number of apoptotic cells per field in the PD-like plaque” value ([5]; oral L-arginine (2.25%), vs control animals) was “increase”.

For `CC(=O)N[C@H](C(=O)O)C(C)(C)SN=O` [SNAP, S-Nitroso-N-acetyl penicillamine], the “increase of cGMP levels in cell extracts” value ([1]; 100 uM SNAP, 3 days, daily replacement, basal 5.0+/−0.4 pmol/mg protein) was 5.0 fold, the cAMP levels ([1]; after 3 days with SNAP, basal 42.6+/−12.7 pmol/mg protein) was “did not vary significantly” and the fibroblast numbers [6] was “reduced fibroblast numbers”. For the same compound, the “collagen I synthesis in all the cells” value ([3]; NO donor in culture) was “inhibitory action” and the myofibroblast differentiation ([3]; NO donor in culture) was “inhibitory action”.

For `CC(=O)CCCCn1c(=O)c2c(ncn2C)n(C)c1=O` [pentoxifylline], the “plaque size (Masson staining, collagen fiber/cell-lacunae area ratio, width of the tunica)” value [4] was “considerable reduction in plaque size”, the “cGMP levels as % of control levels” value [1, 8] was “did not increase significantly” and the “cAMP levels as % of control levels” value ([1]; in the presence of SNAP (100 uM), increasing concentrations, 3 days) was “very effective in increasing cAMP levels”. The “apoptotic index in the plaque” value [5] was “intensification of the apoptotic index, especially for pentoxifylline”, the “number of ASMA positive cells (myofibroblasts)” value ([3]; 3 days) was “about 24%” and the “synthesis of collagen III” value ([3]; 3 days) was “did not decrease, but even increased”.

In the case of `CCCc1nn(C)c2c(=O)[nH]c(-c3cc(S(=O)(=O)N4CCN(C)CC4)ccc3OCC)nc12` [sildenafil], the “plaque size (Masson staining, collagen fiber/cell-lacunae area ratio, width of the tunica)” value [4] is reported as “considerable reduction in plaque size”, the cGMP levels ([1]; in the absence of SNAP) is reported as “did not significantly stimulate” and the “cGMP levels as % of control levels” value [1, 8] is reported as “increased dose-dependently”. For the same compound, the “apoptotic index in the plaque” value [5] was “intensification of the apoptotic index”, the half-life [7] was 4 to 6 h and the “number of ASMA positive cells (myofibroblasts)” value ([3]; 3 days) was “about 24%”. For the same compound, the “synthesis of collagen III” value ([3]; 3 days) was “did not decrease, but even increased” and the “sensitivity of PDE5A3 to sildenafil compared with PDE5A1” value (PDE5A3) was “twice as sensitive”.
